# Measurements taken from patent US10577363B2, “Substituted piperidine compounds” (EPIZYME, INC., priority 2014, dated 2020).
# Tests used:
# [1] = molecular target: T1, SMYD3 (Homo sapiens (Human), UniProt Q9H7B4); assay: SMYD3 cell assay (Trimethyl-MEKK2 In-Cell Western in 293T/17 cells); format: cell-based; details: read-out: SMYD3 Cell IC50*
# Procedure, shortened: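 In-Cell Western ratio of trimethyl-Lys260 MEKK2 to anti-flag signal; percent inhibition from DMSO and maximum-inhibition controls, IC50 by non-linear regression, triplicates.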
# [2] = molecular target: T1, SMYD3; assay: SMYD3 biochemical assay (SPA, 3H-SAM methylation of MEKK2 protein substrate); details: read-out: SMYD3 Biochem IC50*
# Procedure, shortened: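 Tritium incorporation into GST-MEKK2 is counted by scintillation proximity after citric acid bead capture. Native human SMYD3 is preincubated with test compound for 30 min at room temperature at pH 8.0 (Tris-Cl, TCEP, BSG, Tween 20) before 3H-SAM and substrate are added; cold SAM at 100 uM final stops turnover.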
# T1 sequence (Q9H7B4 whole entry): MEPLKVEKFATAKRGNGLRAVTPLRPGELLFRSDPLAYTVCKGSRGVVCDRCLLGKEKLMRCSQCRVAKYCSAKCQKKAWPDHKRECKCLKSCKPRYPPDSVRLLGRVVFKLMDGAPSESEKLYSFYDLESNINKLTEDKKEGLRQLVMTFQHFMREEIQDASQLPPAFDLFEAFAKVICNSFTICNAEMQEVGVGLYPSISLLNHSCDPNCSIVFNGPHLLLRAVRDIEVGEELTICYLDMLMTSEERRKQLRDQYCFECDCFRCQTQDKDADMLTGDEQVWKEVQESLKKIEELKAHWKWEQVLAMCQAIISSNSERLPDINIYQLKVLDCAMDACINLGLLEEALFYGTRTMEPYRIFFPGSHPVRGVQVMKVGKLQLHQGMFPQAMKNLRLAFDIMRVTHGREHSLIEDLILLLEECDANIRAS
SMILES,IC50 [1] [nM],IC50 [2] [nM]
"CC1CC(N)CCN1S(=O)(=O)N1CC[C@H](NC(=O)c2cc(C3CC3)on2)C[C@@H]1C (stereo partly drawn) [compound 890, N-((2S,4S)-1-((4-amino-2-methylpiperidin-1-yl)sulfonyl)-2-methylpiperidin-4-yl)-5-cyclopropylisoxazole-3-carboxamide]",239,13.2
"NC1[C@@H]2CC[C@H]1CN(S(=O)(=O)N1[C@@H]3CC[C@H]1CC(NC(=O)c1cc(C4CC4)on1)C3)C2 (stereo partly drawn) [compound 891, N-((1R,3R,5S)-8-(((1R,5S)-8-amino-3-azabicyclo[3.2.1]octan-3-yl)sulfonyl)-8-azabicyclo[3.2.1]octan-3-yl)-5-cyclopropylisoxazole-3-carboxamide]",145,13.3
"O=C(N[C@H]1C[C@H]2CC[C@@H](C1)N2S(=O)(=O)N1CCC(NCc2ccc(C(F)(F)F)cc2)CC1)c1cc(C2CC2)on1 [compound 892, 5-cyclopropyl-N-((1R,3r,5S)-8-((4-((4-(trifluoromethyl)benzyl)amino)piperidin-1-yl)sulfonyl)-8-azabicyclo[3.2.1]octan-3-yl)isoxazole-3-carboxamide]",268,13.5
"CN1CCC(NS(=O)(=O)N2[C@@H]3CC[C@H]2C[C@@H](NC(=O)c2cc(C4CC4)on2)C3)CC1 [compound 893, 5-cyclopropyl-N-((1R,3r,5S)-8-(N-(1-methylpiperidin-4-yl)sulfamoyl)-8-azabicyclo[3.2.1]octan-3-yl)isoxazole-3-carboxamide]",239,13.7
"CN1CCC([C@@H](Cc2ccccc2)S(=O)(=O)N2[C@@H]3CC[C@H]2C[C@@H](NC(=O)c2cc(C4CC4)on2)C3)CC1 [compound 894, 5-cyclopropyl-N-((1R,3R,5S)-8-(((R)-1-(1-methylpiperidin-4-yl)-2-phenylethyl)sulfonyl)-8-azabicyclo[3.2.1]octan-3-yl)isoxazole-3-carboxamide]",280,13.9
"CN1CC2CCC1CN2S(=O)(=O)N1[C@@H]2CC[C@H]1C[C@@H](NC(=O)c1cc(C3CC3)on1)C2 [compound 895, 5-cyclopropyl-N-((1R,3r,5S)-8-((5-methyl-2,5-diazabicyclo[2.2.2]octan-2-yl)sulfonyl)-8-azabicyclo[3.2.1]octan-3-yl)isoxazole-3-carboxamide]",186,13.9
"CC1(N)CCC(S(=O)(=O)N2[C@@H]3CC[C@H]2C[C@@H](NC(=O)c2cc(C4CC4)on2)C3)CC1 (stereo partly drawn) [compound 896, N-((1R,3R,5S)-8-(((1r,4R)-4-amino-4-methylcyclohexyl)sulfonyl)-8-azabicyclo[3.2.1]octan-3-yl)-5-cyclopropylisoxazole-3-carboxamide]",86.6,14
"O=C(N[C@H]1C[C@H]2CC[C@@H](C1)N2S(=O)(=O)NC1CCNCC1)c1cc(C2CC2)on1 [compound 897, 5-cyclopropyl-N-((1R,3r,5S)-8-(N-(piperidin-4-yl)sulfamoyl)-8-azabicyclo[3.2.1]octan-3-yl)isoxazole-3-carboxamide]",423,14.1
"C[C@@H](NC1CCN(S(=O)(=O)N2CC[C@H](NC(=O)c3cc(C4CC4)on3)C[C@@H]2C)CC1)c1ccccc1 [compound 898, 5-cyclopropyl-N-((2S,4S)-2-methyl-1-((4-(((R)-1-phenylethyl)amino)piperidin-1-yl)sulfonyl)piperidin-4-yl)isoxazole-3-carboxamide]",240,14.3
"COCCCN(C)C1CCN(S(=O)(=O)N2[C@@H]3CC[C@H]2C[C@@H](NC(=O)c2cc(C4CC4)on2)C3)CC1 [compound 899, 5-cyclopropyl-N-((1R,3r,5S)-8-((4-((3-methoxypropyl)(methyl)amino)piperidin-1-yl)sulfonyl)-8-azabicyclo[3.2.1]octan-3-yl)isoxazole-3-carboxamide]",168,14.5
